Tests used:
[1] = system: peripheral blood mononuclear cells (PBMC); assay: Cytokine secretion by PBMC stimulated with megaCD40L (after IFN-γ); format: cell-based, human; conditions: megaCD40L stimulus
Procedure: (§1) PBMC were freshly isolated from heparinized human blood using Fycoll density gradient centrifugation (Histopaque; Sigma Diagnostics). PBMC were cultured in RPMI containing 10% FCS in round-bottom 96-well plates at a concentration of 5×10E5 cells/mL. Two different stimuli were used to induce cytokine secretion from PBMC: • 1. PBMC were cultured in the presence of IFN-γ (250 U/mL) for 24 hours to induce upregulation of CD40. The CD40 pathway was subsequently activated for 24 hours with megaCD40L (100 ng/mL, Enzo Life Sciences). • 2. PBMC were cultured in the presence of IFN-γ for 24 hours to induce upregulation of CD40. Cells were subsequently stimulated for 24 hours with megaCD40L (100 ng/mL) and LPS (100 ng/mL).
(§2) Stimulated PBMC were cultured in the absence or presence of variable concentrations of PG102 (5, 10 and 100 ng/mL) and/or 6-ECDCA (0.1, 1 and 5 μM). PG102 was added simultaneously with the stimulus. In contrast, 6-ECDCA was added 3 hours before adding the stimulus. At the end of the culture period, supernatants were collected and stored at −80° C. until cytokine analysis was performed. The BD cytometric Bead Array (CBA) Human Inflammatory Cytokines Kit (BD Biosciences) was used to measure IL-1β, IL-8, IL-6, TNF and IL-12p70 levels in the culture supernatants. The assay was performed according to the manufacturer's instructions. In brief, capture beads for the cytokines of interest were mixed with supernatant or human inflammatory cytokine standards and PE detection reagent. Samples were incubated for 3 hours at room temperature in the dark. Subsequently, samples were washed and analyzed on a FACS CANTO II cytometer (BD Biosciences). Data was analyzed using de FCAP Array software (BD Biosciences).

[2] = system: LPS-induced TNF production; conditions: cited from earlier work
C57/Bl6 wild type mice = assay: DSS-induced colitis mouse model; format: in vivo
Procedure: Colitis was induced in C57/Bl6 wild type mice by administration of 2.5% (wt/vol) Dextran Sodium Sulphate (DSS; MW. 36000-50000 Da, MP Biochemicals Inc) in drinking water for 8 days. Pharmacological activation of FXR was accomplished by treatment with 6-ethyl-chenodeoxycholic acid (6-ECDCA). 6-ECDCA (10 mg/kg/day) or vehicle were administered by oral gavage for three days prior to the start of DSS-treatment, and continued until the end of the DSS-treatment. At the second day of DSS treatment (day 4 of 6-ECDCA treatment), mice were given an intraperitoneal (i.p.) injection with 250 μg of the hamster antibody against mouse CD40L, MR-1, or control IgG (LEAF™ Purified Armenian Hamster IgG Isotype Ctrl Antibody, Biolegend).
There were 5 treatment groups (n=10 mice/group) in the experiment: […]
Daily changes in body weight were assessed and the body weight at day 2-11 was expressed relative to the body weight at day 1. […] 4 h after FITC administration, mice were sacrificed and the amount of fluorescence in the blood was determined as a marker for permeability. The colon was isolated and colon length was measured. […] Granulocytes were identified based on GR-1 and CD11b expression and expressed as percentage of living cells in the spleen. […] Culture supernatants were collected and TNF was measured using an ELISA.

[3] = system: chemically induced intestinal inflammation; conditions: in vivo; cited from earlier work
[4] = system: peripheral blood mononuclear cells (PBMC); assay: Cytokine secretion by PBMC stimulated with megaCD40L and LPS (after IFN-γ); format: cell-based, human
Procedure: as §1, §2

[5] = 6-ECDCA 5 μM, megaCD40L and LPS stimulus

Structure (SMILES): CC[C@H]1[C@@H](O)[C@@H]2[C@H](CC[C@]3(C)[C@@H]([C@H](C)CCC(=O)O)CC[C@@H]23)[C@@]2(C)CC[C@@H](O)C[C@@H]12 [6-ECDCA, 6-ethyl-chenodeoxycholic acid]
- inhibition of IL-1β release ([1]; 6-ECDCA 5 μM): 35%
- inhibition of IL-6 release ([1]; 6-ECDCA 5 μM): 18%
- inhibition of IL-8 release ([1]; 6-ECDCA 5 μM): 17%
- inhibition of IL-12p70 release ([1]; 6-ECDCA 5 μM): 20%
- inhibition of TNF release ([1]; 6-ECDCA 5 μM): 14%
- release of TNF, IL-6, IL-8, IL-1β and IL-12p70 ([1]; 6-ECDCA alone at 0.1 or 1 μM): did not inhibit
- LPS-induced TNF production [2]: inhibit LPS-induced TNF production in a dose-dependent fashion
- colitis disease process induced by DSS (C57/Bl6 wild type mice; 6-ECDCA 10 mg/kg/day oral gavage, MR-1 250 μg i.p. once, second day of DSS): interfered with the colitis disease process
- granulocytes in the spleen (GR-1, CD11b; FACS) (C57/Bl6 wild type mice; end of experiment, FIG. 11): increase in granulocytes
- chemically induced intestinal inflammation [3]: interfere with chemically induced intestinal inflammation
- inhibition of IL-1β [4, 5]: 12%
- inhibition of IL-6 [4, 5]: 0%
- inhibition of IL-8 [4, 5]: 9%
- inhibition of IL-12p70 [4, 5]: 22%
- inhibition of TNF [4, 5]: 21%
- inhibiting proinflammatory cytokine release ([4]; activation of the CD40 pathway alone or in combination with the TLR-4 pathway): not very effective

Reference: patent US20160151486A1, “CD40 Signalling Inhibitor and a Further Compound, Wherein the Further Compound is a Bile Acid, a Bile Acid Derivative, an TGR5-Receptor Agonist, an FXR Agonist or a Combination Thereof, for the Treatment of Chronic Inflammation, and the Prevention of Gastrointestinal Cancer or Fibrosis” (Fast Forward Pharmaceuticals B.V., priority 2013, published 2016)
